“Also recorded” adds a separate entry of the source.
Columns and labels:
[1] = system: rats; experiment: potentiation of ETOH-induced loss of righting response, ETOH 60 minutes after dosing; type: in vivo, rat; settings: for ETOH Liability Index: ratio ED50 motor activity / MED ETOH potentiation; for Minimum Effective Dose (MED mg/kg) to potentiate ETOH-induced loss of righting response: rats, ETOH 3.2 g/kg i.p. 60 minutes after dosing
Excerpt: Benzodiazepines and barbiturate sedative-hypnotics produce a profound potentiation of the deleterious effects of ethanol (ETOH) in man and animals (Ayd, supra). Intraperitoneal ETOH alone, when administered to rats at a dose of 3.2 g/kg, produces a reliable loss of righting response. The loss of righting response caused by ETOH can be used to measure the possible interaction of ETOH with test drugs. This is done by delivering the ETOH and a test drug sequentially, and determining the Minimum Effective Dose of test drug which will potentiate the time that ETOH produces the loss of righting response. The ETOH Liability Index for a drug can be determined by calculating the ratio of (1) the ED50 of the test drug to decrease motor activity (a measure of sedation) to (2) the Minimum Effective Dose (MED) of the test drug to potentiate the time for ETOH-induced loss of righting response.
ETOH Liability Indices were determined experimentally for Compound 1, flurazepam and triazolam by intraperitoneally delivering ETOH (3.2 g/kg) to the animals 60 minutes after dosing with each test drug (see Table 2 below).

[2] = system: rats; experiment: potentiation of ETOH delivered 24 hours after dosing (hangover liability); type: in vivo, rat; settings: for Hangover Liability Index: ETOH 24 hours after administration; for potentiation of ETOH delivered 24 hours after drug treatment: rat, in vivo
Description: The important observation that Compound 1 causes very little potentiation of ETOH was extended by determining a Hangover Liability Index, the measure of the ability of the drug to potentiate ETOH 24 hours after administration (see Table 3 below). Sedative-hypnotic agents have been reported to produce drowsiness, confusion and other side effects in man on the day following the normal overnight use of these compounds.

[3] = system: rats; experiment: inclined screen grip strength test; type: in vivo, rat; settings: for ED50: Rattus norvegicus
Description: (§1) The sedative effects of Compound 1 were measured in rats using a panel of standard tests which monitor the effects of drugs on motor activity, muscle relaxation and motor coordination.
(§2) This latter compound is well characterized as a competitive antagonist at the benzodiazepine site, which can reverse the effects of benzodiazepine site agonists.
(§3) Administration of benzodiazopines to animals and to man for periods of several weeks can result in a tolerance to their sedative effects (Finkle, supra). In order to assess tolerance to Compound 1, its effects were tested on rat motor activity, and on grip strength using the inclined screen procedures after single and repeated administrations. The results of these studies were then compared to results gathered from rats which had received similar dosings of triazolam.

[4] = biological target: benzodiazepine site on the GABAA receptor; experiment: [3H]flunitrazepam binding to rat cortex; settings: for IC50: rat cortex, read-out: IC50, displacement of [3H]flunitrazepam binding
[5] = system: GABAA receptor; experiment: [35S]TBPS binding to rat cortex membranes
Excerpt: TBPS binds to a site on the GABAA receptor which is closely associated with the chloride channel, and an increase in TBPS binding correlates with increased activation of the chloride conductance (i.e., enhanced GABAA receptor function). Compounds which act as agonists at the benzodiazepine site increase TBPS binding to varying degrees, which reflects their relative efficacies.

[6] = system: squirrel monkeys; experiment: vigilance test (reaction time) in squirrel monkeys; type: in vivo, squirrel monkey; settings: >1 mg/kg orally one hour before testing
Excerpt: Vigilance tests based on reaction time measurements in monkeys measure drug induced slowing of responses and decreases in attentional or cognitive processes. Squirrel monkeys were trained to respond to a visual trigger by bar pressing for a food reward.

[7] = biological target: benzodiazepine site on the GABAA receptor; experiment: [3H]flunitrazepam binding to rat cerebellum membranes; settings: read-out: IC50, inhibition of [3H]flunitrazepam binding
[8] = system: rats; experiment: Thirsty Rat Conflict Procedure; type: in vivo
Description: The Thirsty Rat Conflict Procedure involves rats which are deprived of water for 48 hours. They are then given brief electrical shocks following each 20th lick of a drinking tube. These shocks create a “conflict situation” which results in a marked decrease in licking (drinking) behavior.

[9] = system: rats; experiment: one-trial passive avoidance test (amnesia); type: in vivo, rat; settings: for Amnestic Liability Index: ratio ED50 decreased motor activity / MED to produce amnesia
Description: This effect can be studied in rats by the one-trial passive avoidance test. In this test an undrugged, naive rat is given an electric shock when it moves from the illuminated side to the darkened side of a two-compartment chamber. When tested for recall of this training 24 hours later, a placebo-injected animal will show excellent recall of the aversive training, and thus a high latency time for entering the darkened side.

[10] = system: rats; experiment: prevention of chemically induced convulsions in rats; type: in vivo, rat; settings: for ED50: Rattus norvegicus
Excerpt: Benzodiazepine sedative-hypnotic agents are potent anticonvulsants in animals, and are used clinically for the treatment of status epilepticus. Oral doses of Compound 1 were effective in blocking convulsions in rats which resulted from injections of agents know to induce convulsion (see Table 1 below).

[11] = system: rats; experiment: sleep duration in rats; type: in vivo, rat
Description: (§4) Compound 1 produced dose-related increases in sleep duration in rats, with a minimum effective dose of 2.0 mg/kg.

[12] = system: squirrel monkeys; experiment: EEG studies in squirrel monkeys; type: in vivo, squirrel monkey; settings: 4.0 mg/kg i.m.
Description: as §4

[13] = system: rats; experiment: rod walking test; type: in vivo; settings: Rattus norvegicus, oral
Description: as §1

[14] = system: rats; experiment: motor activity in rats (activity meter); type: in vivo, rat; settings: for ED50: Rattus norvegicus
Description: as §1, §2, §3

[15] = system: rats; experiment: panel of standard tests for sedative effects in rats (motor activity, muscle relaxation, motor coordination); type: in vivo, rat
Description: as §1

[16] = system: rats; experiment: prevention of electrical shock induced convulsions; type: in vivo; settings: Rattus norvegicus; oral; 150 mA, 60 Hz transcorneal shock for 0.3 seconds; read-out: ED50 blocking electrical shock induced convulsions
[17] = system: squirrel monkeys; experiment: Squirrel Monkey Conflict Procedure; type: in vivo
Description: The Squirrel Monkey Conflict Procedure involves monkeys which are initially trained to press a bar to receive a food reward. In later sessions the animals were given occasional electrical shocks following randomly selected bar presses. These animals responded to the conflict situation by substantially lowering their levels of bar-pressing activity. […] This increase in conflict response reflects the anxiolytic effects of the drug. The increase drops off at 4.0 mg/kg, which may be due to a subtle sedative effect of the compound which begins developing in this dose range. The inverted-U shaped dose-response function described above for Compound 1 is consistent with the profile of other sedative-hypnotic drugs of the benzodiazepine-ligand class, and reflects the sedative properties of these drugs (Cook and Sepinwall, supra).

[18] = 3.1 mg/kg Compound 1 p.o. + 10 mg/kg Ro 15-1788 i.p.
[19] = inclined screen, fourth day of daily dosing, read-out: ED50 grip strength, tolerance study
[20] = inclined screen, single administration, read-out: ED50 grip strength, tolerance study
[21] = Table 2, read-out: Decrease in Motor Activity (ED50 mg/kg)
[22] = fourth day of daily dosing, read-out: ED50 motor activity, tolerance study
[23] = single administration, read-out: ED50 motor activity, tolerance study

## CC(=O)N(C)c1cccc(-c2ccnc3c(C(=O)c4cccs4)cnn23)c1 [Compound 1, N-methyl-N-(3-{3-[2-thienylcarbonyl]-pyrazol-[1,5-α]-pyrimidin-7-yl}phenyl)acetamide]
[1]; rat, in vivo, oral, 60 min
  times less ETOH liability compared to triazolam and flurazepam: ≥ 10 times
[1]
  ETOH Liability Index: 0.48
  Minimum Effective Dose (MED mg/kg) to potentiate ETOH-induced loss of righting response: 2.5 mg/kg
[2]
  Hangover Liability Index: 0.0
  potentiation of ETOH delivered 24 hours after drug treatment: failed to potentiate ETOH
[3]; [18]
  effect on grip strength (inclined screen) with Ro 15-1788 co-treatment: reverse the impairment of grip strength; also recorded: reversed
[3]; [19]
  ED50: 18.3 mg/kg
[3]; [20]
  ED50: 2.6 mg/kg
[3]; po, inclined screen grip strength test, read-out: ED50 for muscle relaxant effects
  ED50: 2.7 mg/kg
[4]
  IC50: 9.8 nM
[5]
  Emax, maximum enhancement of TBPS binding: 65%
[6]
  effect on accuracy and latency of responses: dose related decrements in both the accuracy and latency of the responses
[7]
  IC50: 2 nM
[8]; oral 0.3 mg/kg
  increase in number of shocks accepted vs vehicle control: 100%
[9]; rat, in vivo
  amnestic effect: small amnestic effect compared to triazolam or flurazepam
[9]
  Amnestic Liability Index: 0.15
[10]; rats, oral, inducer Bicuculline (iv), read-out: ED50 preventing convulsion
  ED50: 2.3 mg/kg
[10]; rats, oral, inducer Pentylenetetrazol (iv), read-out: ED50 preventing convulsion
  ED50: 2.5 mg/kg
[10]; read-out: ED50 preventing convulsion, rats, oral, inducer Picrotoxin (sc)
  ED50: 1.9 mg/kg
[10]; read-out: ED50 preventing convulsion, rats, oral, inducer Strychnine (sc)
  ED50: 4.4 mg/kg
[10]; all five methods (four chemical inducers and electrical shock)
  anticonvulsant potency relative to reference drugs: less than that of triazolam and greater than that of flurazepam
[11]
  minimum effective dose for increase in sleep duration: 2.0 mg/kg
[12]
  changes in EEG power spectrum: a relative decrease in alpha activity and an increase in beta activity
[13]
  ED50: 3 mg/kg
[14]; [18]
  effect on motor/locomotor activity with Ro 15-1788 co-treatment: antagonize the decreases in motor activity; also recorded: reversed
[14]; [21]
  ED50: 1.2 mg/kg
[14]; [22]
  ED50: 14.5 mg/kg
[14]; po, activity meter, read-out: ED50 for decrease in motor activity
  ED50: 1.2 mg/kg
[14]; [23]
  ED50: 2.4 mg/kg
[15]
  sedative potency relative to reference drugs: approximately equipotent with triazolam and more potent than zolpidem and flurazepam
[16]
  ED50: 5.5 mg/kg
[17]; 4.0 mg/kg
  increase in conflict response: drops off
[17]; oral 2.0 mg/kg
  increase above baseline responses to conflict situation: 100%

## CC(=O)Nc1cccc(-c2ccnc3c(C(=O)c4cccs4)cnn23)c1 [desmethyl metabolite of Compound 1]
[4]
  times less potent than Compound 1 in displacing radiolabeled flunitrazepam: approximately 74 times
  IC50: 725 nM
[5]
  Emax, maximum enhancement of TBPS binding: 28%
[8]; 12 mg/kg
  effect in thirsty rat conflict model: without effect
[15]; motor activity, inclined screen, rod walking
  sedative effects in the test panel: did not show sedative effects

## CN1C(=O)CN=C(c2ccccc2)c2cc(Cl)ccc21 [diazepam]
[4]
  IC50: 17 nM
[5]
  Emax, maximum enhancement of TBPS binding: 55%

## CN1C(=O)CN=C(c2ccccc2F)c2cc([N+](=O)[O-])ccc21 [flunitrazepam]
[4]
  IC50: 114 nM

## CCN(CC)CCN1C(=O)CN=C(c2ccccc2F)c2cc(Cl)ccc21 [flurazepam]
[1]
  ETOH Liability Index: 4.98
  Minimum Effective Dose (MED mg/kg) to potentiate ETOH-induced loss of righting response: 5.0 mg/kg
[2]
  Hangover Liability Index: 2.5
  potentiation of ETOH delivered 24 hours after drug treatment: significantly potentiated
[5]
  Emax, maximum enhancement of TBPS binding: 71%
[9]
  Amnestic Liability Index: 3.1
[14]; [21]
  ED50: 24.9 mg/kg

## Cc1nnc2n1-c1ccc(Cl)cc1C(c1ccccc1Cl)=NC2 [triazolam, reference compound]
[1]
  ETOH Liability Index: 20
  Minimum Effective Dose (MED mg/kg) to potentiate ETOH-induced loss of righting response: .08 mg/kg
[2]
  Hangover Liability Index: 10
  potentiation of ETOH delivered 24 hours after drug treatment: significantly potentiated
[3]; [19]
  ED50: > 100 mg/kg
[3]; [20]
  ED50: 5.1 mg/kg
[4]
  IC50: 0.5 nM
[5]
  Emax, maximum enhancement of TBPS binding: 78%
[9]
  Amnestic Liability Index: 1.6
[14]; [21]
  ED50: 1.6 mg/kg
[14]; [22]
  ED50: > 100 mg/kg
[14]; [23]
  ED50: 3.9 mg/kg

## Cc1ccc(-c2nc3ccc(C)cn3c2CC(=O)N(C)C)cc1 [zolpidem]
[4]
  IC50: 26 nM
